Data set [1] concerns A549 (non-small cell lung cancer cell line). In words: MTT antiproliferative assay, A549. The class given is cell-based, human. The following applies: 96 h incubation. Here is the method:
(§1) The target compounds were evaluated for their antiproliferative activity against different human cancer cell lines, including A549 (non-small cell lung cancer cell line), MCF-7 (breast cancer cell line), HCT116 (colon cancer cell line), PC-3 (prostate cancer cell line) and HL7702 (human liver normal cell line) by using the MTT assay with sorafenib as the control drug.
(§2) The antiproliferative activities of target compounds were determined using a standard MTT assay. Exponentially growing cells A549 (1.5 × 10^3 cells/well), MCF-7 (2.2 × 10^3 cells/well), HCT-116 (800 cells/well), PC-3 (2.0 × 10^3 cells/well) and HL7702 (5.0 × 10^3 cells/well) were seeded into 96-well plates and incubated for 24 h to allow the cells to attach. Then, a fresh medium containing various concentrations of the candidate compounds was added to each well. The cells were then incubated for 96 h, thereafter MTT assays were performed, and cell viability was assessed at 570 nm by a microplate reader (ThermoFisher Scientific (Shanghai) Instrument Co., Ltd., Shanghai, China). The optical densities (OD) at 570 nm were measured, and the IC50 of the target compounds was calculated by using GraphPad Prism 5.0 software to perform nonlinear fitting with the cell survival rate under different concentrations of the compounds.
(In general: Tetrazolium assays rely on reduction of a dye to a coloured formazan, in cell work by metabolically active cells.)

Data set [2] deals with MCF-7 (breast cancer cell line). The data set is described as follows: MTT antiproliferative assay, MCF7. In kind it is cell-based, human. The following applies: 96 h incubation. Here is the method: as §1, §2
The subject of data set [3] is HCT116 (colon cancer cell line). In words: MTT antiproliferative assay, HCT116. The class given is cell-based, human. The conditions noted are these: 96 h incubation. On the procedure: as §1, §2
Data set [4] relates to PC-3 (prostate cancer cell line). In words: MTT antiproliferative assay, PC3. The class given is cell-based, human. The conditions noted are these: 96 h incubation. Here is the method: as §1, §2
Data set [5] deals with HL7702 (human liver normal cell line). In words: MTT cytotoxicity assay, HL7702. In kind it is cell-based. The following applies: L02, HL7702 normal liver cells, 96 h incubation. Here is the method: as §1, §2

In publication PMC8226862, “Design, Synthesis and Anticancer Activity of a New Series of N-aryl-N′-[4-(pyridin-2-ylmethoxy)benzyl]urea Derivatives” (Molecules, 2021) one finds IC50 and melting point data, which are given here for 13 compounds.

The term IC50 denotes the concentration that gives 50% inhibition. A high value points to weaker potency in that assay. The term melting point denotes the temperature of the solid-liquid transition.

Turning to `COc1cc(CNC(=O)Nc2cccc([N+](=O)[O-])c2)ccc1OCc1nccc(OCC(F)(F)F)c1C` [8f, 1-(3-methoxy-4-((3-methyl-4-(2,2,2-trifluoroethoxy)pyridin-2-yl)methoxy)benzyl)-3-(3-nitrophenyl)urea], the melting point lay in the range of 168.9 to 170.5 °C. This compound returned an IC50 in data set [1] (Homo sapiens, A549, 96 h) of 12.4 ± 0.6 µM. In data set [2] (Homo sapiens, MCF7, 96 h), this compound had a half-inhibitory concentration (IC50) of 13.3 ± 2.27 µM. This compound registered an IC50 in data set [3] (Homo sapiens, HCT-116, 96 h) of 13.3 ± 2.78 µM. Further, the concentration for half-maximal inhibition (IC50) in data set [4] (Homo sapiens, 96 h) stood at 15.9 ± 0.73 µM. This compound also came in with an IC50 in data set [5] of more than 50 µM.
In turn, `COc1cc(CNC(=O)Nc2ccc(F)c(Cl)c2)ccc1OCc1nccc(OCC(F)(F)F)c1C` [8b, 1-(3-chloro-4-fluorophenyl)-3-(3-methoxy-4-((3-methyl-4-(2,2,2-trifluoroethoxy)pyridin-2-yl)methoxy)benzyl)urea] registered a melting point of 167.8 to 169.1 °C. Moreover, half-maximal inhibition in data set [1] (Homo sapiens, A549, 96 h) (IC50) was put at 17.7 ± 5.65 µM. Besides, the IC50 in data set [2] (Homo sapiens, MCF7, 96 h) worked out at 11 ± 1.68 µM. It took 9.33 ± 1.38 µM to reach half-maximal inhibition in data set [3] (Homo sapiens, HCT-116, 96 h) (IC50). In data set [4] (Homo sapiens, 96 h), this compound gave an IC50 of 29.1 ± 5.81 µM. The same compound came in with an IC50 in data set [5] of more than 50 µM.
As to `CNC(=O)c1cc(Oc2ccc(NC(=O)Nc3ccc(Cl)c(C(F)(F)F)c3)cc2)ccn1` [sorafenib, reference compound], the IC50 is 6.16 ± 0.46 µM in data set [1] (Homo sapiens, A549, 96 h); 3.54 ± 0.19 µM in data set [2] (Homo sapiens, MCF7, 96 h); 3.88 ± 0.36 µM in data set [3] (Homo sapiens, HCT-116, 96 h); 5.26 ± 0.46 µM in data set [4] (Homo sapiens, 96 h); more than 50 µM in data set [5].
Turning to `COc1ccc(NC(=O)N(Cc2ccc(OCc3nccc(OCC(F)(F)F)c3C)c(OC)c2)C2CCN(C)CC2)cc1` [9c, 1-(3-methoxy-4-((3-methyl-4-(2,2,2-trifluoroethoxy)pyridin-2-yl)methoxy)benzyl)-3-(4-methoxyphenyl)-1-(1-methylpiperidin-4-yl)urea], the melting point is 179.1 to 180.8 °C. In addition, 15.8 ± 1.51 µM corresponded to half-maximal inhibition in data set [1] (Homo sapiens, A549, 96 h) (IC50). Moreover, the IC50 in data set [2] (Homo sapiens, MCF7, 96 h) was 4.65 ± 0.73 µM. This compound had an IC50 in data set [3] (Homo sapiens, HCT-116, 96 h) of 12.9 ± 1.59 µM. The IC50 in data set [4] (Homo sapiens, 96 h) was found to be 12.3 ± 1.75 µM. The compound further had an IC50 in data set [5] of more than 50 µM.
`COc1cc(CN(C(=O)Nc2cccc(C(F)(F)F)c2)C2CCN(C)CC2)ccc1OCc1nccc(OCC(F)(F)F)c1C` [9d, 1-(3-methoxy-4-((3-methyl-4-(2,2,2-trifluoroethoxy)pyridin-2-yl)methoxy)benzyl)-1-(1-methylpiperidin-4-yl)-3-(3-(trifluoromethyl)phenyl)urea] returned a melting point of 160.4 to 162.2 °C. In data set [1], this compound gave an IC50 of 3.17 ± 0.22 µM. Also, the IC50 in data set [1] (Homo sapiens, A549, 96 h) is less than 5 µM. Inhibition in data set [2] was half-maximal at 2.63 ± 0.08 µM (IC50). In addition, the IC50 in data set [2] (Homo sapiens, MCF7, 96 h) was less than 3 µM. For the same compound, the IC50 in data set [3] was 2.56 ± 0.26 µM. The compound further had an IC50 in data set [3] (Homo sapiens, HCT-116, 96 h) of less than 3 µM. Also, half-maximal inhibition in data set [4] (IC50) was put at 3.62 ± 0.27 µM. Further, the IC50 in data set [4] (Homo sapiens, 96 h) is less than 5 µM. The compound further came in with an IC50 in data set [5] of more than 50 µM.
Consider `COc1cc(CN(C(=O)Nc2cccc([N+](=O)[O-])c2)C2CCN(C)CC2)ccc1OCc1nccc(OCC(F)(F)F)c1C` [9f, 1-(3-methoxy-4-((3-methyl-4-(2,2,2-trifluoroethoxy)pyridin-2-yl)methoxy)benzyl)-1-(1-methylpiperidin-4-yl)-3-(3-nitrophenyl)urea], for which the melting point fell in the range of 157.5 to 159.1 °C. This compound yielded an IC50 in data set [1] (Homo sapiens, A549, 96 h) of 6.09 ± 0.29 µM. The compound also showed an IC50 in data set [2] (Homo sapiens, MCF7, 96 h) of 3.18 ± 0.3 µM. Besides, the IC50 in data set [3] (Homo sapiens, HCT-116, 96 h) was determined as 5.18 ± 0.33 µM. For the same compound, half-maximal inhibition in data set [4] (Homo sapiens, 96 h) (IC50) was put at 7.39 ± 0.63 µM. This compound also had an IC50 in data set [5] of more than 50 µM.
For the compound `COc1cc(CN(C(=O)Nc2ccc(F)c(Cl)c2)C2CCN(C)CC2)ccc1OCc1nccc(OCC(F)(F)F)c1C` [9e, 3-(3-chloro-4-fluorophenyl)-1-(3-methoxy-4-((3-methyl-4-(2,2,2-trifluoroethoxy)pyridin-2-yl)methoxy)benzyl)-1-(1-methylpiperidin-4-yl)urea], the melting point lay in the range of 176.2 to 177.7 °C. Also, the midpoint of inhibition in data set [1] (Homo sapiens, A549, 96 h), the IC50, lay at 5.48 ± 4.36 µM. Moreover, in data set [2], the IC50 was 2.56 ± 0.16 µM. In data set [2] (Homo sapiens, MCF7, 96 h), this compound came in with an IC50 of less than 3 µM. The same compound returned an IC50 in data set [3] (Homo sapiens, HCT-116, 96 h) of 5.82 ± 0.21 µM. Besides, the IC50 in data set [4] amounted to 4.53 ± 0.33 µM. In addition, the IC50 in data set [4] (Homo sapiens, 96 h) was less than 5 µM. Moreover, in data set [5], the IC50 is more than 50 µM.
Regarding `CCOc1ccc(CNC(=O)N(Cc2ccc(OCc3nccc(OCC(F)(F)F)c3C)c(OC)c2)C2CCN(C)CC2)cc1` [9g, 3-(4-ethoxybenzyl)-1-(3-methoxy-4-((3-methyl-4-(2,2,2-trifluoroethoxy)pyridin-2-yl)methoxy)benzyl)-1-(1-methylpiperidin-4-yl)urea], the melting point lay in the range of 119 to 121.2 °C. In data set [1] (Homo sapiens, A549, 96 h), this compound displayed an IC50 of 6.04 ± 0.41 µM. This compound also had a half-inhibitory concentration (IC50) in data set [2] (Homo sapiens, MCF7, 96 h) of 4.23 ± 0.47 µM. For the same compound, in data set [3], the IC50 came to 2.93 ± 0.26 µM. Besides, the IC50 in data set [3] (Homo sapiens, HCT-116, 96 h) was less than 3 µM. In data set [4] (Homo sapiens, 96 h), this compound yielded an IC50 of 6.25 ± 0.43 µM. Besides, in data set [5], the IC50 is more than 50 µM.
As to `COc1cc(CNC(=O)Nc2ccc(C(F)(F)F)cc2)ccc1OCc1nccc(OCC(F)(F)F)c1C` [8c, 1-(3-methoxy-4-((3-methyl-4-(2,2,2-trifluoroethoxy)pyridin-2-yl)methoxy)benzyl)-3-(4-(trifluoromethyl)phenyl)urea], the melting point fell in the range of 169.9 to 171 °C. In data set [1], this compound showed an IC50 of 4.88 ± 1.94 µM. In data set [1] (Homo sapiens, A549, 96 h), the IC50 is less than 5 µM. In data set [2] (Homo sapiens, MCF7, 96 h), the IC50 was more than 50 µM. Also, in data set [3] (Homo sapiens, HCT-116, 96 h), the IC50 came to 11.4 ± 3.28 µM. Also, the IC50 in data set [4] (Homo sapiens, 96 h) was more than 50 µM. This compound showed an IC50 in data set [5] of more than 50 µM.
Compound `COc1ccc(NC(=O)NCc2ccc(OCc3nccc(OCC(F)(F)F)c3C)c(OC)c2)cc1` [8e, 1-(3-methoxy-4-((3-methyl-4-(2,2,2-trifluoroethoxy)pyridin-2-yl)methoxy)benzyl)-3-(4-methoxyphenyl)urea] came in with a melting point of 179.5 to 180.3 °C. Also, the IC50 in data set [1] (Homo sapiens, A549, 96 h) was found to be 29.8 ± 5.09 µM. This compound registered an IC50 in data set [2] (Homo sapiens, MCF7, 96 h) of more than 50 µM. The compound further gave an IC50 in data set [3] (Homo sapiens, HCT-116, 96 h) of 28.8 ± 3.11 µM. Also, the IC50 in data set [4] (Homo sapiens, 96 h) was more than 50 µM. Moreover, the IC50 in data set [5] was more than 50 µM.
In turn, `COc1cc(CNC(=O)NCc2ccc(N(C)C)cc2)ccc1OCc1nccc(OCC(F)(F)F)c1C` [8i, 1-(4-(dimethylamino)benzyl)-3-(3-methoxy-4-((3-methyl-4-(2,2,2-trifluoroethoxy)pyridin-2-yl)methoxy)benzyl)urea] came in with a melting point of 159.4 to 161.4 °C. For the same compound, the IC50 in data set [1] (Homo sapiens, A549, 96 h) amounted to 9.85 ± 4.4 µM. This compound also returned an IC50 in data set [2] (Homo sapiens, MCF7, 96 h) of more than 50 µM. In data set [3] (Homo sapiens, HCT-116, 96 h), this compound showed an IC50 of 10.9 ± 2.85 µM. In data set [4] (Homo sapiens, 96 h), the IC50 was more than 50 µM. The same compound displayed an IC50 in data set [5] of more than 50 µM.
Regarding `COc1cc(CNC(=O)Nc2cccc(C(F)(F)F)c2)ccc1OCc1nccc(OCC(F)(F)F)c1C` [8d, 1-(3-methoxy-4-((3-methyl-4-(2,2,2-trifluoroethoxy)pyridin-2-yl)methoxy)benzyl)-3-(3-(trifluoromethyl)phenyl)urea], the melting point fell in the range of 153.2 to 154.2 °C. In data set [1] (Homo sapiens, A549, 96 h), this compound gave an IC50 of 26.5 ± 5.66 µM. This compound came in with an IC50 in data set [2] (Homo sapiens, MCF7, 96 h) of more than 50 µM. The compound further registered an IC50 in data set [3] (Homo sapiens, HCT-116, 96 h) of 9.44 ± 1.22 µM. In addition, the IC50 in data set [4] (Homo sapiens, 96 h) was more than 50 µM. This compound also displayed an IC50 in data set [5] of more than 50 µM.
`COc1cc(CNC(=O)Nc2ccc(OC(F)(F)F)cc2)ccc1OCc1nccc(OCC(F)(F)F)c1C` [8a, 1-(3-methoxy-4-((3-methyl-4-(2,2,2-trifluoroethoxy)pyridin-2-yl)methoxy)benzyl)-3-(4-(trifluoromethoxy)phenyl)urea]: the melting point was 158.8 to 159.3 °C. The same compound had an IC50 in data set [1] (Homo sapiens, A549, 96 h) of 5.3 ± 1.45 µM. Besides, the IC50 in data set [2] (Homo sapiens, MCF7, 96 h) was more than 50 µM. Also, in data set [3] (Homo sapiens, HCT-116, 96 h), half-maximal inhibition (IC50) was put at 7.25 ± 0.87 µM. This compound yielded an IC50 in data set [4] (Homo sapiens, 96 h) of more than 50 µM. In data set [5], this compound had an IC50 of more than 50 µM.
